“Also recorded” adds a separate entry of the source. Like-named read-outs stand apart in the source and are kept apart here.
Columns and labels:
[1] = target: T1, human serotonin transporter (hSERT) (Homo sapiens, UniProt P31645); assay: Radioligand binding to cloned hSERT, [3H]citalopram, HEK-293 cell membranes; conditions: for Binding at hSERT compared to PRC200-SS: in words
T1 construct: expressed in transfected cells; host or cells: HEK-293, stably transfected

[2] = target: T2, rat dopamine transporter, synaptosomal preparations (Rattus norvegicus, UniProt P23977); assay: Inhibition of [3H]DA reuptake in rat brain synaptosomes (striatum); format: biochemical
T2 construct: and striatal tissues for transport of dopamine; from tissue; host or cells: rat striatum synaptosomes (male Sprague-Dawley)
Method: The dissected tissues were separately homogenized in 20 volumes (cortical) or 40 volumes (striatal) of ice-cold, oxygenated HEPES buffer 0.32 M sucrose containing 11 mM glucose (pH 7.4) in a glass Potter-Elvehjem homogenizer with Teflon® pestle (8 strokes, 900 rpm). The homogenates were centrifuged at 1,000×g for 10 minutes. The resulting supernatant was decanted and further centrifuged at 20,000×g for 20 minutes at 4° C. […] The synaptosomal protein concentration was determined by using the BCA assay (Pierce Biotechnology Inc, Rockford, Ill.), according to the manufacturer's instructions. Synaptosomal protein (1.0-2.5 mg) was suspended in 1 mL oxygenated incubation buffer as defined above. Test amine compound was pre-incubated with the synaptosomal preparation for 30 minutes at 37° C. in a shaking water bath (80 oscillations/minute).

[3] = target: T3, human norepinephrine transporter (hNET) (Homo sapiens, UniProt P23975); assay: Radioligand binding to cloned hNET, [3H]nisoxetine, HEK-293 cell membranes
T3 construct: expressed in transfected cells; host or cells: HEK-293, stably transfected

[4] = test system: rat 5-HT, NE and DA transport, synaptosomal preparations; assay: Rat brain synaptosomal transport: rank order of potency; format: biochemical; conditions: from Ki values; S = 5HT, N = NE, D = DA
CYP2D6 = target: T4, CYP2D6 (Homo sapiens, UniProt P10635); assay: CYP2D6 inhibition, CYP2D6/AMMC kit (BD Biosciences), fluorescent substrate; format: in vitro ADME; conditions: for Potency of inhibition at CYP2D6, in words: compared with PRC200-SS
T4 construct: purchased BD Biosciences 459200
From the text: This kit includes the use of a fluorescent P450 substrate (AMMC or 3-[2-(N,N-diethyl-N-methylamino)ethyl]-7-methoxy-4-methylcoumarin) and recombinant human P450.

Male Sprague-Dawley rats = assay: Forced swim test in rats; format: in vivo, rat
In short: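 Male Sprague-Dawley rats got a 15 min pretest swim, then a 5-minute test 24 h later. Immobility (floating, only head-keeping movements) and swimming scored as total counts per 5-min session; ANOVA with Tukey post-hoc test.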

[5] = Geometric Mean ± SEM, rat brain synaptosomes, read-out: Inhibitor Constant (Ki), DA transport
[6] = Geometric Mean ± SEM, HCl salts, read-out: Equilibrium Dissociation Constant (KD) for Transporter Binding, hSERT (S)
[7] = Geometric Mean ± SEM, HCl salts, read-out: Equilibrium Dissociation Constant (KD) for Transporter Binding, hNET (N)

T4 sequence (P10635 whole entry): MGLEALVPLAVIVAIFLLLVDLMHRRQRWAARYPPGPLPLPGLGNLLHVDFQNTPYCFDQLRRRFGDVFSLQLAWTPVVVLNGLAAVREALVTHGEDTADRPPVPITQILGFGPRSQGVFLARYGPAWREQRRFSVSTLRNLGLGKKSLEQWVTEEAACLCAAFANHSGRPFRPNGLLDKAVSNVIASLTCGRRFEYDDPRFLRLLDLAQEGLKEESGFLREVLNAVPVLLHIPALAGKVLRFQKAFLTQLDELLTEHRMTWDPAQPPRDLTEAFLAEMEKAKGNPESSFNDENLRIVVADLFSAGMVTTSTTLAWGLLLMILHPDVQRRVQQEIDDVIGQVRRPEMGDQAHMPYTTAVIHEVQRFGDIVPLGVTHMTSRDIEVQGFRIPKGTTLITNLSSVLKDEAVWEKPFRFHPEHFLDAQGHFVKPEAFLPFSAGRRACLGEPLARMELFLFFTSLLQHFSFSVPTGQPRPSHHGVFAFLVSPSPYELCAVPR
T2 sequence (P23977 whole entry): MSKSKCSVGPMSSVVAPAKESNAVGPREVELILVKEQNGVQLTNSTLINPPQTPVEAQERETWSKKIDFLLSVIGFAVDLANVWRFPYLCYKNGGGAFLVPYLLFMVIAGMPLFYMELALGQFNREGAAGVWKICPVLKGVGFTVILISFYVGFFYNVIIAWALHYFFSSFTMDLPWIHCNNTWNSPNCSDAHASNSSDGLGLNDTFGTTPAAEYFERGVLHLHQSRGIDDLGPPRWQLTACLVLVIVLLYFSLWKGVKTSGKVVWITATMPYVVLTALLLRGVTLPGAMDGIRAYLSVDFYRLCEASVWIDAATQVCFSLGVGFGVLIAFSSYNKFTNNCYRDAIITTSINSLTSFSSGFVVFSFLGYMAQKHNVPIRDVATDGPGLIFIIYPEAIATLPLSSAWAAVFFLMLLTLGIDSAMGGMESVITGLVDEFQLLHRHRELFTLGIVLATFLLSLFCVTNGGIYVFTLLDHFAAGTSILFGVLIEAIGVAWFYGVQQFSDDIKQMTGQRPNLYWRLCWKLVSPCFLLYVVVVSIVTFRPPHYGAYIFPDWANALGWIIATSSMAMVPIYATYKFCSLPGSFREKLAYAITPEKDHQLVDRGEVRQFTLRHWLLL
T1 sequence (P31645 whole entry): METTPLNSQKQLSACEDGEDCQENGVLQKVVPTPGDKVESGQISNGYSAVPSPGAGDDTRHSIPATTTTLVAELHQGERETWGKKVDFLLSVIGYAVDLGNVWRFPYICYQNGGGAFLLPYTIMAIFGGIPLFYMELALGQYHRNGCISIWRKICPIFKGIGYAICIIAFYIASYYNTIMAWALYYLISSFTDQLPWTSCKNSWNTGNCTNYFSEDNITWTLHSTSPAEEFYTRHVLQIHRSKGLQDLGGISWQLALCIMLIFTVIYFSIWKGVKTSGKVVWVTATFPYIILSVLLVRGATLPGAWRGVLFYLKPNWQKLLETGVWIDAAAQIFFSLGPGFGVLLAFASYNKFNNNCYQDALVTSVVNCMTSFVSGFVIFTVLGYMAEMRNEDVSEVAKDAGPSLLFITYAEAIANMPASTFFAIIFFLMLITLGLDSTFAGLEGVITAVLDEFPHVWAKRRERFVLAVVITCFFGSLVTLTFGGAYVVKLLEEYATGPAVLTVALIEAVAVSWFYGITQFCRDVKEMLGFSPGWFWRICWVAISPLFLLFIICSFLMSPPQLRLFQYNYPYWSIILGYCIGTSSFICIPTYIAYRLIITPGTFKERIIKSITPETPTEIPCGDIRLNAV
T3 sequence (P23975 whole entry): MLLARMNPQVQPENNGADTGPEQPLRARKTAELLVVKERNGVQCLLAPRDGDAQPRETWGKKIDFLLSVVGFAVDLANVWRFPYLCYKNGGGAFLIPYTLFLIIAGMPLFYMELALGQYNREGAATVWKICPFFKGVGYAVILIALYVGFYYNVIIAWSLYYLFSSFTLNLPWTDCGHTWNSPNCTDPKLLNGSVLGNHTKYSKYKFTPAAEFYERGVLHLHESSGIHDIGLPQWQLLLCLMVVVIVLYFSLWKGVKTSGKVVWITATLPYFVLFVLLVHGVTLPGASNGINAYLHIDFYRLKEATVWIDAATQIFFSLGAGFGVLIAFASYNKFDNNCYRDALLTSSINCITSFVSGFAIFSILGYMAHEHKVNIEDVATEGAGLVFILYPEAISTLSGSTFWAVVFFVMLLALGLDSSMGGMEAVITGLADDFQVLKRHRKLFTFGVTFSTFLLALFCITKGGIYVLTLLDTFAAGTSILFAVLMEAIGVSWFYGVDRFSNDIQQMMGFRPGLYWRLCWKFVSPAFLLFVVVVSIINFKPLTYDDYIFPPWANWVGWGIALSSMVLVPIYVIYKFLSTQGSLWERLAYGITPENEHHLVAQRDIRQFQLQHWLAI

SMILES	Kd [1]	Binding at hSERT compared to PRC200-SS [1]	Ki [2, 5]	Kd [3]	Potency (rank order, transport into rat brain synaptosomal preparations) [4]	Kd [1, 6]	Kd [3, 7]	Antidepressant activity in forced swim test compared with imipramine (15 mg/kg IP) (Male Sprague-Dawley rats; 5 mg/kg IP, FIG. 12A)	Immobility in forced swim test vs saline (Male Sprague-Dawley rats; 5 mg/kg IP)	Swimming in forced swim test vs saline (Male Sprague-Dawley rats; 5 mg/kg IP)	other results
CNCC(c1ccc2ccccc2c1)C(F)c1ccccc1 (racemic) [MCJ001-F-(±)-RR, (2R,3R/2S,3S)-3-fluoro-N-methyl-2-(naphthalen-2-yl)-3-phenylpropan-1-amine]	3.9 ± 0.1 nM	greater binding at hSERT	250 ± 9 nM	4.5 ± 0.8 nM	N > S > D	–	–	–	–	–	–
CNC[C@H](c1ccc2ccccc2c1)[C@H](OCCCCCO[C@H](c1ccccc1)[C@H](CNC)c1ccc2ccccc2c1)c1ccccc1 [MCJ001-Dimer5-SS, (2S,2′S,3S,3′S)-3,3′-(pentane-1,5-diylbis(oxy))bis(N-methyl-2-(naphthalen-2-yl)-3-phenylpropan-1-amine)]	–	–	800 ± 300 nM	–	S > N > D	140 ± 30 nM	160 ± 30 nM	–	–	–	–
CNC[C@H](c1ccc2ccccc2c1)[C@@H](F)c1ccccc1 [MCJ001-F-RS, (2S,3R)-3-fluoro-N-methyl-2-(naphthalen-2-yl)-3-phenylpropan-1-amine]	2.8 ± 0.3 nM	greater binding at hSERT	–	0.9 ± 0.1 nM	S = N > D	–	–	antidepressant activity that was similar to that observed in rats treated with the positive control	–	–	Potency of inhibition at CYP2D6, in words (CYP2D6): markedly reduced the potency of inhibition at CYP2D6; IC50 (CYP2D6; recombinant human P450, AMMC substrate, read-out: Mean CYP2D6 (IC50)): 160 nM; Ki [2]: 58 ± 6 nM; Immobility in forced swim test, 5 mg/kg IP vs 5 mg/kg PO of the same compound (Male Sprague-Dawley rats): statistically (P<0.02) more swimming and less immobility; Swimming in forced swim test, 5 mg/kg IP vs 5 mg/kg PO of the same compound (Male Sprague-Dawley rats): statistically (P<0.02) more swimming and less immobility; Climbing in forced swim test vs saline (Male Sprague-Dawley rats; 5 mg/kg IP): statistically (P<0.02) more swimming and climbing; Immobility in forced swim test vs saline (Male Sprague-Dawley rats; 5 mg/kg IP, 5 mg/kg): statistically (P<0.04) less immobility; also recorded: statistically (P<0.02) less immobility; Swimming in forced swim test vs saline (Male Sprague-Dawley rats; 5 mg/kg IP, 5 mg/kg): statistically (P<0.04) more swimming behavior; also recorded: statistically (P<0.02) more swimming and climbing; Immobility in forced swim test vs imipramine (15 mg/kg IP) (Male Sprague-Dawley rats; 5 mg/kg IP, FIG. 12A): statistically (P<0.04) less immobility than rats treated with imipramine; Climbing in forced swim test vs saline (Male Sprague-Dawley rats; 5 mg/kg PO): statistically (P<0.02) more swimming and climbing; Immobility in forced swim test vs saline (Male Sprague-Dawley rats; 5 mg/kg PO): statistically (P<0.02) less immobility; Swimming in forced swim test vs saline (Male Sprague-Dawley rats; 5 mg/kg PO): statistically (P<0.02) more swimming and climbing
CNC[C@@H](c1ccc2ccccc2c1)[C@H](F)c1ccccc1 [MCJ001-F-SR, (2R,3S)-3-fluoro-N-methyl-2-(naphthalen-2-yl)-3-phenylpropan-1-amine]	130 ± 20 nM	much more weakly at hNET and hSERT	130 ± 20 nM	430 ± 70 nM	S > N > D	–	–	antidepressant activity that was similar to that observed in rats treated with the positive control	statistically (P<0.04) less immobility	statistically (P<0.04) more swimming behavior	Binding at hNET compared to PRC200-SS ([3]; in words): much more weakly at hNET and hSERT
CNC[C@H](c1ccc2ccccc2c1)[C@@H](N=[N+]=[N-])c1ccccc1 [MCJ001-N3-RS, (2S,3R)-3-azido-N-methyl-2-(naphthalen-2-yl)-3-phenylpropan-1-amine]	–	–	270 ± 50 nM	–	N > S > D	124 ± 9 nM	64 ± 7 nM	antidepressant activity that was similar to that observed in rats treated with the positive control	statistically (P<0.04) less immobility	statistically (P<0.04) more swimming behavior	IC50 (CYP2D6): 4000 nM
CNC[C@@H](c1ccc2ccccc2c1)[C@H](N=[N+]=[N-])c1ccccc1 [MCJ001-N3-SR, (2R,3S)-3-azido-N-methyl-2-(naphthalen-2-yl)-3-phenylpropan-1-amine]	–	–	2000 ± 300 nM	–	N > S > D	380 ± 40 nM	700 ± 100 nM	–	–	–	–
CNC[C@H](c1ccc2ccccc2c1)[C@H](OC)c1ccccc1 [MCJ001-OMe-SS, (2S,3S)-3-methoxy-N-methyl-2-(naphthalen-2-yl)-3-phenylpropan-1-amine]	–	–	46 ± 5 nM	–	S > N > D	13 ± 2 nM	1.4 ± 0.2 nM	antidepressant activity that was similar to that observed in rats treated with the positive control	statistically (P<0.04) less immobility	statistically (P<0.04) more swimming behavior	Potency of inhibition at CYP2D6, in words (CYP2D6): markedly reduced the potency of inhibition at CYP2D6
CN(C)C[C@H](c1ccc2ccccc2c1)[C@H](N)c1ccccc1 [MCJ002-NH2-SS, (2S,3S)-N1,N1-dimethyl-2-(naphthalen-2-yl)-3-phenylpropane-1,3-diamine]	–	greater binding at hSERT	–	–	–	2.4 ± 0.3 nM	12.6 ± 0.9 nM	antidepressant activity that was similar to that observed in rats treated with the positive control	statistically (P<0.04) less immobility	statistically (P<0.04) more swimming behavior	Occupancy of hNET binding sites ([3]; when the compound occupies 95% of hSERT binding sites, calculation based on occupancy theory): 79%

From patent publication US8440724B2, “Inhibiting neurotransmitter reuptake” (Mayo Foundation for Medical Education and Research, priority 2008, dated 2013)
